Source: patent US9708314B2, “Heterocyclic amide compound” (NISSAN CHEMICAL INDUSTRIES, LTD., priority 2013, dated 2017)

Experiments:
Type in all cases: in vivo
[1] = system: Triticum aestivum; assay: Test Example 4: effect on crop by application to foliage (diluvial soil, plastic box); settings: for e: effect on crop, Triticum aestivum: application herbicide amount 320 g/ha
Outline: (§1)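 Emulsion-formulated compound, diluted to a predetermined g/ha dose, applied by small sprayer to leaves and stems of 14-day-old seedlings grown in sterilized diluvial soil. Effect rated on 0–5 herbicidal-ratio scale three weeks on.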

[2] = system: directly sowed Oryza sativa; assay: as above; settings: for b: effect on crop, directly sowed Oryza sativa: application herbicide amount 320 g/ha
Outline: as §1

[3] = system: Brassica campestris L.; assay: as above; settings: for g: effect on crop, Brassica campestris L.: application herbicide amount 320 g/ha
Outline: as §1

[4] = system: Beta vulgaris ssp. vulgaris; assay: as above; settings: for f: effect on crop, Beta vulgaris ssp. vulgaris: application herbicide amount 320 g/ha
Outline: as §1

[5] = system: Glycine max; assay: as above; settings: for d: effect on crop, Glycine max: application herbicide amount 320 g/ha
Outline: as §1

[6] = system: Zea mays; assay: as above; settings: for c: effect on crop, Zea mays: application herbicide amount 320 g/ha
Outline: as §1

[7] = system: Lolium multiflorum Lam.; assay: Test Example 4: herbicidal effect by application to foliage (diluvial soil, plastic box); settings: for K: herbicidal effect on Lolium multiflorum Lam.: application herbicide amount 320 g/ha
Outline: as §1

[8] = system: Alopecurus myosuroides; assay: as above; settings: for J: herbicidal effect on Alopecurus myosuroides: application herbicide amount 320 g/ha
Outline: as §1

[9] = system: Abutilon theophrasti; assay: as above; settings: for M: herbicidal effect on Abutilon theophrasti: application herbicide amount 320 g/ha
Outline: as §1

[10] = system: Galium spurium; assay: as above; settings: for Q: herbicidal effect on Galium spurium: application herbicide amount 320 g/ha
Outline: as §1

[11] = system: Echinochloa crus-galli var. crus-galli; assay: as above; settings: for H: herbicidal effect on Echinochloa crus-galli var. crus-galli: application herbicide amount 320 g/ha
Outline: as §1

[12] = system: Digitaria ciliaris; assay: as above; settings: for F: herbicidal effect on Digitaria ciliaris: application herbicide amount 320 g/ha
Outline: as §1

[13] = system: Avena fatua; assay: as above; settings: for I: herbicidal effect on Avena fatua: application herbicide amount 320 g/ha
Outline: as §1

[14] = system: Setaria viridis; assay: as above; settings: for G: herbicidal effect on Setaria viridis: application herbicide amount 320 g/ha
Outline: as §1

[15] = system: Apera spica-venti.; assay: as above; settings: for L: herbicidal effect on Apera spica-venti.: application herbicide amount 320 g/ha
Outline: as §1

[16] = system: Chenopodium album; assay: as above; settings: for O: herbicidal effect on Chenopodium album: application herbicide amount 320 g/ha
Outline: as §1

[17] = system: Leptochloa chinensis; assay: Test Example 3: herbicidal effect by application to foliage (Wagner pot, water depth 0.1-0.5 cm); settings: Nineteenth Table; application to foliage; application herbicide amount 320 g/ha
Outline: (§2)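 Alluvial soil in 1/10000 are Wagner pots, sown and grown 14 days in a 25–30 °C greenhouse. An emulsifiable concentrate diluted in water to the set dose (g/ha) was sprayed on stems and leaves. Effect scored three weeks later on a 0–5 scale: 5 = ≥90% herbicidal ratio, 0 = ≤5%.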

[18] = system: Echinochloa crus-galli var. crus-galli; assay: as above; settings: Nineteenth Table; application to foliage; application herbicide amount 320 g/ha
Outline: as §2

[19] = application to foliage, 320 g/ha
[20] = Application herbicide amount 320 g/ha, effect on crop
[21] = Application herbicide amount 320 g/ha

| SMILES | e: effect on crop, Triticum aestivum ([1]; application to foliage) | b: effect on crop, directly sowed Oryza sativa ([2]; application to foliage) | g: effect on crop, Brassica campestris L. ([3]; application to foliage) | f: effect on crop, Beta vulgaris ssp. vulgaris ([4]; application to foliage) | d: effect on crop, Glycine max ([5]; application to foliage) | c: effect on crop, Zea mays ([6]; application to foliage) | K: herbicidal effect on Lolium multiflorum Lam. ([7]; application to foliage) | J: herbicidal effect on Alopecurus myosuroides ([8]; application to foliage) | M: herbicidal effect on Abutilon theophrasti ([9]; application to foliage) | Q: herbicidal effect on Galium spurium ([10]; application to foliage) | H: herbicidal effect on Echinochloa crus-galli var. crus-galli ([11]; application to foliage) | F: herbicidal effect on Digitaria ciliaris ([12]; application to foliage) | I: herbicidal effect on Avena fatua ([13]; application to foliage) | G: herbicidal effect on Setaria viridis ([14]; application to foliage) | L: herbicidal effect on Apera spica-venti. ([15]; application to foliage) | O: herbicidal effect on Chenopodium album ([16]; application to foliage) | D (herbicidal effect grade) [17] | H (herbicidal effect grade) [18] | other results |
| --- | --- | --- | --- | --- | --- | --- | --- | --- | --- | --- | --- | --- | --- | --- | --- | --- | --- | --- | --- |
| Cc1nnc(NC(=O)c2ccc(C(F)(F)F)n3c(CC(F)(F)F)nnc23)o1 [1-162] | 0 (Herbicidal ratio of 5% or less (almost no effect)) | 0 (Herbicidal ratio of 5% or less (almost no effect)) | 1 (Herbicidal ratio of 5% or more and less than 20%) | 3 (Herbicidal ratio of 40% or more and less than 70%) | 3 (Herbicidal ratio of 40% or more and less than 70%) | 0 (Herbicidal ratio of 5% or less (almost no effect)) | 1 (Herbicidal ratio of 5% or more and less than 20%) | 1 (Herbicidal ratio of 5% or more and less than 20%) | 3 (Herbicidal ratio of 40% or more and less than 70%) | 2 (Herbicidal ratio of 20% or more and less than 40%) | 4 (Herbicidal ratio of 70% or more and less than 90%) | 3 (Herbicidal ratio of 40% or more and less than 70%) | 1 (Herbicidal ratio of 5% or more and less than 20%) | 1 (Herbicidal ratio of 5% or more and less than 20%) | 0 (Herbicidal ratio of 5% or less (almost no effect)) | 4 (Herbicidal ratio of 70% or more and less than 90%) | 4 (Herbicidal ratio of 70% or more and less than 90%) | 4 (Herbicidal ratio of 70% or more and less than 90%) |  |
| CCSc1nnc2c(C(=O)Nc3nnnn3CCOC)ccc(C(F)(F)F)n12 [2-098] |  |  |  |  |  |  |  |  |  |  |  |  |  |  |  |  | 5 (Herbicidal ratio of 90% or more (almost completely withered)) | 5 (Herbicidal ratio of 90% or more (almost completely withered)) | effect on crop, e (Triticum aestivum) [1, 19]: 3 (Herbicidal ratio of 40% or more and less than 70%); effect on crop, d (directly sowed Oryza sativa) [2, 19]: 4 (Herbicidal ratio of 70% or more and less than 90%); effect on crop, g (Brassica campestris L.) [3, 19]: 4 (Herbicidal ratio of 70% or more and less than 90%); effect on crop, f (Beta vulgaris ssp. vulgaris) [4, 19]: 5 (Herbicidal ratio of 90% or more (almost completely withered)); effect on crop, c (Glycine max) [5, 19]: 1 (Herbicidal ratio of 5% or more and less than 20%); effect on crop, b (Zea mays) [6, 19]: 4 (Herbicidal ratio of 70% or more and less than 90%); herbicidal effect, K (Lolium multiflorum Lam.) [7, 19]: 3 (Herbicidal ratio of 40% or more and less than 70%); herbicidal effect, J (Alopecurus myosuroides) [8, 19]: 2 (Herbicidal ratio of 20% or more and less than 40%); herbicidal effect, M (Abutilon theophrasti) [9, 19]: 4 (Herbicidal ratio of 70% or more and less than 90%); herbicidal effect, Q (Galium spurium) [10, 19]: 4 (Herbicidal ratio of 70% or more and less than 90%); herbicidal effect, H (Echinochloa crus-galli var. crus-galli) [11, 19]: 5 (Herbicidal ratio of 90% or more (almost completely withered)); herbicidal effect, F (Digitaria ciliaris) [12, 19]: 5 (Herbicidal ratio of 90% or more (almost completely withered)); herbicidal effect, I (Avena fatua) [13, 19]: 4 (Herbicidal ratio of 70% or more and less than 90%); herbicidal effect, G (Setaria viridis) [14, 19]: 5 (Herbicidal ratio of 90% or more (almost completely withered)); herbicidal effect, L (Apera spica-venti.) [15, 19]: 4 (Herbicidal ratio of 70% or more and less than 90%); herbicidal effect, O (Chenopodium album) [16, 19]: 5 (Herbicidal ratio of 90% or more (almost completely withered)) |
| Cc1nnc(NC(=O)c2ccc(C(F)(F)F)n3c(CC(=O)NC(C)C)nnc23)o1 [1-061] |  |  |  |  |  |  |  |  |  |  |  |  |  |  |  |  | 4 (Herbicidal ratio of 70% or more and less than 90%) | 5 (Herbicidal ratio of 90% or more (almost completely withered)) | e [1, 20]: 0 (Herbicidal ratio of 5% or less (almost no effect)); d [2, 20]: 4 (Herbicidal ratio of 70% or more and less than 90%); g [3, 20]: 4 (Herbicidal ratio of 70% or more and less than 90%); f [4, 20]: 4 (Herbicidal ratio of 70% or more and less than 90%); c [5, 20]: 1 (Herbicidal ratio of 5% or more and less than 20%); b [6, 20]: 1 (Herbicidal ratio of 5% or more and less than 20%); K [7, 21]: 1 (Herbicidal ratio of 5% or more and less than 20%); J [8, 21]: 1 (Herbicidal ratio of 5% or more and less than 20%); M [9, 21]: 5 (Herbicidal ratio of 90% or more (almost completely withered)); Q [10, 21]: 4 (Herbicidal ratio of 70% or more and less than 90%); H [11, 21]: 4 (Herbicidal ratio of 70% or more and less than 90%); F [12, 21]: 3 (Herbicidal ratio of 40% or more and less than 70%); I [13, 21]: 3 (Herbicidal ratio of 40% or more and less than 70%); G [14, 21]: 3 (Herbicidal ratio of 40% or more and less than 70%); L [15, 21]: 1 (Herbicidal ratio of 5% or more and less than 20%); O [16, 21]: 5 (Herbicidal ratio of 90% or more (almost completely withered)) |
| CN(CCC#N)c1nnc2c(C(=O)Nc3nnco3)ccc(C(F)(F)F)n12 [1-164] | 3 (Herbicidal ratio of 40% or more and less than 70%) | 4 (Herbicidal ratio of 70% or more and less than 90%) | 4 (Herbicidal ratio of 70% or more and less than 90%) | 5 (Herbicidal ratio of 90% or more (almost completely withered)) | 5 (Herbicidal ratio of 90% or more (almost completely withered)) | 0 (Herbicidal ratio of 5% or less (almost no effect)) | 1 (Herbicidal ratio of 5% or more and less than 20%) | 1 (Herbicidal ratio of 5% or more and less than 20%) | 4 (Herbicidal ratio of 70% or more and less than 90%) | 4 (Herbicidal ratio of 70% or more and less than 90%) | 5 (Herbicidal ratio of 90% or more (almost completely withered)) | 5 (Herbicidal ratio of 90% or more (almost completely withered)) | 3 (Herbicidal ratio of 40% or more and less than 70%) | 5 (Herbicidal ratio of 90% or more (almost completely withered)) | 3 (Herbicidal ratio of 40% or more and less than 70%) | 5 (Herbicidal ratio of 90% or more (almost completely withered)) | 5 (Herbicidal ratio of 90% or more (almost completely withered)) | 5 (Herbicidal ratio of 90% or more (almost completely withered)) |  |
